From patent US20120040008A1, “PHARMACEUTICAL COMPOSITIONS OF METABOTROPIC GLUTAMATE 5 RECEPTOR (MGLU5) ANTAGONISTS” (priority 2010, published 2012)
In brackets after ≈: the same amount, converted by molar mass.

Legend:
Format in all cases: physicochemical
[1] = BCS classification; conditions: because of pH dependent solubility in physiological range
[2] = aqueous solubility of the free base, pH-dependent; conditions: aqueous medium
[3] = log D at pH 7.4

BCS classification [1]: BCS class 2
solubility ([2]; aqueous buffer, alkaline conditions, pH 7): 0.3 µg/mL (≈ 0.000921 mM)
solubility ([2]; simulated gastric fluid, acidic conditions, pH 1): 3200 µg/mL (≈ 9.82 mM)
logD [3]: > 3
SMILES: Cc1nc(C#Cc2ccnc(Cl)c2)c(C)n1-c1ccc(F)cc1 [2-Chloro-4-[1-(4-fluoro-phenyl)-2,5-dimethyl-1H-imidazol-4-ylethynyl]-pyridine]
